Molecular target: HadA (Mycobacterium tuberculosis, UniProt P9WFK1)
Type: binding

Sequence of HadA (P9WFK1 whole entry): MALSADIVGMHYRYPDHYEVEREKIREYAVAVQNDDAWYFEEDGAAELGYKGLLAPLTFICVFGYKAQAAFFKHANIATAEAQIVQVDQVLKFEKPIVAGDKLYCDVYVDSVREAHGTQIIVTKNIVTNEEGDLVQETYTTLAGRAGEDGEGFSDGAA

`CCN(CC)c1ccc2cc(-c3ccc(/C=N/NC(N)=S)s3)c(=O)oc2c1` [Coum-TAC, (E)-((5-(7-((N,N)-diethylamino)-2-oxo-2H-chromen-3-yl)thiophen-2-yl)methylene)hydrazine-1-carbothioamide] was tested, and the “UV-vis, fluorescence and ESI mass spectrometry of re-purified HadA” value was “EthA promotes the formation of a covalent adduct between Coum-TAC and HadA”.

Reference: article PMC8022203 (ACS infectious diseases, 2021)
